Where two headings read alike, the source gives them in different places.
Columns and labels:
in vitro = conditions: human, CC50, 50% cytotoxic concentration, iSLK.219 cells, 48 h, with Dox and NaB
KSHV lytic replication [1] = conditions: for Selective index (CC50/IC50): human; for IC50: supernatant of iSLK.219 cells treated 48 h used to infect Vero cells 48 h, GFP readout
KSHV lytic replication [2] = assay: Field-based 3D QSAR model of anti-KSHV activity; design: species or system Kaposi's sarcoma associated herpesvirus (KSHV); unit not given here; conditions: log IC50 of the anti-KSHV IC50
Description: Qualitative analysis was followed by quantitative SAR (QSAR) modelling utilizing the Field-Based QSAR Panel implemented in Schrödinger Suite[14] to set up CoMFA/CoMSIA models from these enantiomers. These enantiomers first superimposed using the flexible shape-based alignment method (Fig. 6). […] Experimental activities of additional analogues would likely provide a better model. Moreover, correlation between the observed activities and the predicted activities was plotted in Fig. 7.
QSAR studies were conducted with Schrödinger Suite 2017-1.
A data set (Table 3) was randomly assigned into training and test sets with a ratio of approximately 4/1, and their activities (IC50) were converted to the logarithm (log IC50). The minimized conformations of these enantiomers were generated utilizing LigPrep and aligned according to the flexible shape-based alignment method. The force field was used and the maximum PLS factors were set as 1/5 of the total number of the training set in order to avoid over-fitting. The parameters that were not mentioned were left as defaults.

KSHV lytic replication [3] = assay: microbe, parasite or virus in culture; conditions: Human gammaherpesvirus 8, Vero, 48 h, supernatant of iSLK.219 cells treated 48 h used to infect Vero cells 48 h, GFP readout
KSHV lytic replication [4] = assay: in vitro; conditions: human, Selective index (CC50/IC50)
Human iSLK.219 cells = conditions: 50% cytotoxic concentration, 48 h, with Dox and NaB

SMILES	CC50 (in vitro)	Selective index (CC50/IC50) (KSHV lytic replication [1])	IC50 (KSHV lytic replication [1])	Observed activity (KSHV lytic replication [2])	IC50 (KSHV lytic replication [3])	selectivity ratio (KSHV lytic replication [4])	CC50 (Human iSLK.219 cells)
C=C(C)C1CCC2(C)Oc3c(c(O)cc(O)c3C(=O)C(C)C)CC12 (single isomer, unassigned; (+)) [Compound 1a, (+)-japonicol E]	195 µM	23.49	8.3 µM	0.919			
CC(C)=CCCC1(C)Oc2c(c(O)cc(O)c2C(=O)C(C)C)CC1O (single isomer, unassigned; (+)) [Compound 2a, (+)-japonicol F]	126 µM			1.447	28 µM	4.5	
CC(C)=CCCC(C)(O)C1Cc2c(O)cc(O)c(C(=O)C(C)C)c2O1 (single isomer, unassigned; (+)) [Compound 3a, (+)-japonicol G]	79.5 µM	3.66	21.7 µM	1.337			
CC(C)=CCCC(C)(O)C1Cc2c(O)cc(O)c(C(=O)c3ccccc3)c2O1 (single isomer, unassigned; (+)) [Compound 4a, (+)-japonicol H]	126 µM	25.70	4.9 µM	0.690			
C=C(C)C1CCC2(C)Oc3c(c(O)cc(O)c3C(=O)C(C)C)CC12 (single isomer, unassigned; (-)) [Compound 1b, (−)-japonicol E]		7.78	24.5 µM	1.388			190 µM
CC(C)=CCCC1(C)Oc2c(c(O)cc(O)c2C(=O)C(C)C)CC1O (single isomer, unassigned; (-)) [Compound 2b, (−)-japonicol F]		5.50	27.3 µM	1.436			150 µM
CC(C)=CCCC(C)(O)C1Cc2c(O)cc(O)c(C(=O)C(C)C)c2O1 (single isomer, unassigned; (-)) [Compound 3b, (−)-japonicol G]		7.48	6.7 µM	0.826			50.1 µM
CC(C)=CCCC(C)(O)C1Cc2c(O)cc(O)c(C(=O)c3ccccc3)c2O1 (single isomer, unassigned; (-)) [Compound 4b, (−)-japonicol H]		>6.79	29.5 µM	1.469			> 200 µM
Nc1ccn(C[C@@H](CO)OCP(=O)(O)O)c(=O)n1 [Cidofovir, reference compound]	> 1 µM				0.0081 µM	> 123	
CC(C)C(=O)c1c(O)cc(O)c2c1OC1(C)CCC(C(C)(C)O)C2C1O (stereo not shown) [Compound 5a]	> 500 µM			2.307	203 µM	> 2.46	
CC(C)C(=O)c1c(O)cc(O)c2c1OC1(C)CCC(C(C)(C)O)C2C1O (stereo not shown) [Compound 5b]		>3.55	141 µM	2.149			> 500 µM
CC(C)C(=O)c1c(O)cc(O)c2c1OC1(C)CCC(C(C)(C)O)OC1C2 (stereo not shown) [Compound 6a]	141 µM			1.247			
CC(C)C(=O)c1c(O)cc(O)c2c1OC1(C)CCC(C(C)(C)O)OC1C2 (stereo not shown) [Compound 6b]				1.600			174 µM
CC(C)C(=O)c1c(O)cc(O)c2c1OC(C)(C)C1CCC(C)(O)C1C2 (stereo not shown) [Compound 7a]	221 µM		17.7 µM	0.942			
CC(C)C(=O)c1c(O)cc(O)c2c1OC(C)(C)C1CCC(C)(O)C1C2 (stereo not shown) [Compound 7b]			39.8 µM	1.464			> 300 µM
CC(C)C(=O)c1c(O)cc(O)c(CC2C(C(C)(C)O)CCC2(C)O)c1O (stereo not shown) [Compound 8a]	> 300 µM	>7.50	40 µM	1.602			
CC(C)C(=O)c1c(O)cc(O)c(CC2C(C(C)(C)O)CCC2(C)O)c1O (stereo not shown) [Compound 8b]		>1.89	158 µM	2.200			> 300 µM
